We go through one compound from patent US20260174677A1, “METHODS OF TREATING INSULIN RESISTANCE AND ASSOCIATED DISORDERS” (The University of Melboune, priority 2022, published 2026).

Common to all, as to type: in vivo, mouse
Assay [1] has as its system ARC CSPG-ECM. Put plainly: Intranasal PZ6005 in diet-induced obese mice: WFA immunostaining of CSPG-ECM within the ARC. To be noted: 14 days; for ARC CSPG-ECM area, lower than the controls / ARC CSPG-ECM intensity, decrease: 12-week-HFHS-diet-fed obese mice. How it is done:
For detection of aggrecan, GFP, HABP, parvalbumin, mCherry, versican, tenascin-C, HAPLN1, neurocan, phosphacan, brevican, WFA and WFA-FITC sections were incubated at room temperature for 1 h in blocking buffer (0.3% Triton X-100, 5% normal goat serum, Gibco, ThermoFisher, MA, 0.02% sodium azide) and then overnight at 4° C. in 1% blocking buffer containing either rabbit anti-aggrecan (1:1000, AB1031, Millipore, MA), chicken anti-GFP (1:2000; ab13970, Abcam, Cambridge, UK), Biotinylated HABP (1:100, 385911, Burlington, MA), sheep anti-parvalbumin (1:1000), in house), rabbit anti-dsRed (1:2000, 600-401-379, Rockland, PA), rabbit anti-versican (1:1000, AB1033, Millipore, MA), tenascin-C (1:500, M1-B4, Developmental Studies Hybridoma Bank, Iowa), HAPLN1 (1:500, 9/30/8-A-4, Developmental Studies Hybridoma Bank, Iowa), neurocan (1:300, 1F6-S, Developmental Studies Hybridoma Bank, Iowa), phophacan (1:300, 3F8, Developmental Studies Hybridoma Bank, Iowa), brevican (1:500, 610895, BD Transduction Laboratories), biotinylated WFA (1:2000, L1516; Sigma-Aldrich, MO), WFA-FITC (1:2000, FL-1351-2, Vector Laboratories, CA), rabbit anti PGP9.5 (1:1000, 14730-1-AP, Proteintech, IL), guinea pig anti AgRP (1:500, AS506, Antibodies Australia, Melbourne, AUS). After washing with PBS-T (0.3% Triton X-100 in PBS, +0.02% sodium azide), sections were incubated with goat anti-chicken Alexa Fluor 488 (ab150169, Abcam, Cambridge, UK), goat anti-rabbit Alexa Fluor-488, 595, 647 (ab150077, ab150080, ab150083, Abcam, Cambridge, UK), donkey anti-sheep Alexa Fluor 594 (ab150180, Abcam, Cambridge, UK), Alexa Fluor 594, 647 Streptavidin (405240, BioLegend, CA)—conjugated secondary antibodies in 5% blocking buffer for 2 h at room temperature. […] Brightness and contrast in the colour merged images have been adjusted to aid in the analysis of co-incidence.
All image quantification was performed in Image J (NIH) software (NIH, MA). Raw images underwent background subtraction using a rolling ball algorithm to minimize background and any potential variance in tissue autofluorescence. To quantify area and intensity of the CSPG-ECM within each brain region (ARC, VMH or RSG cortex) images were thresholded and binarized to create a region of interest (ROI) mask of only the CSPG-ECM. For each brain area, CSPG-ECM ROI area (μm^2) and intensity (sum of all pixel intensities within the ROI) was calculated. This process was automated to minimise bias and to account for differences in brain nuclei size across multiple images. Brain nuclei were defined in accordance with the Paxinos and Franklin mouse brain atlas (http://labs.gaidi.ca/mouse-brain-atlas/). The area and intensity of CSPG-ECM within each region was normalised to the respective control.
(§1) Conscious mice were restrained by scruffing and inverted parallel to the floor with the chin at ˜180-degree angle with the neck. Using a 10 μL tip, a pipettor was loaded with 5 μl of vehicle (ddH2O) or fluorosamine (1 mg/animal in 20 μl or 5 mg/animal in 20 μl). The tip of the filled pipettor was placed near the left nostril at a 45-degree angle, and the drug was ejected to form a small 5 μl droplet at tip for the mouse to inhale. Immediately after the mouse inhaled the first droplet the remaining solution was ejected to form another small droplet for the mouse to inhale through the same nostril. The mouse was held in this position for 15 seconds before the procedure was repeated in the right nostril.

Assay [2] is described as follows: Intranasal PZ6005 in diet-induced obese mice: body weight, tissue mass and fat mass. How it is done: Metabolic measurements were undertaken in the Melbourne Mouse Metabolic Phenotyping Platform (The University of Melbourne, Australia). Glucose tolerance tests were performed on 6 h fasted conscious mice respectively by injecting D-glucose (2 mg/g of lean body mass and 1 mg/g lean mass for db/db and HFHS+STZ mice) into the peritoneal cavity and measuring glucose in tail blood immediately before and at 15, 30, 45, 60, 90 and 120 min after injection using an Accu-Check glucometer (Roche, Germany). The areas under glucose excursion curves were determined and expressed as mmol/1×min. Fasted (12 h fast) plasma insulin or glucose levels were determined using a Rat/Mouse Insulin ELISA (EZRMI-13K, Merck Millipore, CA) or an Accu-Check glucometer respectively. The HOMA-IR was calculated using the equation [(glucose×insulin)/405]. Adiposity was measured using TD-NMR minispec (Bruker Optics Inc., Billerica, MA).
as §1, with “right nostril. The mouse was returned to the cage for 2 minutes and the process was repeated so that each mouse received four droplets of 5 μl each, delivering a total of 20 μl of solution. All drugs were administered delivered approximately 1 h before lights off […].” for “right nostril.”
Changes in body weight of 12-week-HFHS-diet-fed obese mice during 14 days of intranasal administration of either vehicle or PZ6005 (1 or 5 mg/animal/day). Intranasal PZ6005 treatment induce weight loss in a dose-dependent manner, as assessed by significant differences in weight changes across groups. […] At the end of the experiment, mice in the highest dose of PZ6005 treatment had lost […] and those in the 1 mg treatment had lost […], whereas control littermates maintained at 3.57±1.28% of body weight (FIG. 10a).
To determine the influence of intranasal PZ6005-mediated attenuated neurofibrosis on tissue-specific adiposity and body composition, peripheral tissues and fat mass of the mice were weighed following the 14-day administration. […] Moreover, the reduction in overall fat mass depended upon the doses of PZ6005.

For assay [3], the system named is insulin-induced p-AKT in the ARC. As to the kind of experiment: Intranasal PZ6005 in obese mice: insulin-induced p-AKT immunohistochemistry in the ARC. To be noted: both doses I.N. (1 or 5 mg/animal/day), 14 days, after I.P. insulin. How it is done:
as §1, with “right nostril. The mouse was returned to the cage for 2 minutes and the process was repeated so that each mouse received four droplets of 5 μl each, delivering a total of 20 μl of solution. All drugs were administered delivered approximately 1 h before lights off […].” for “right nostril.”

Where [4] appears, read: I.N. 1 mg/animal/day, 14 days, obese mice.
The mark [5] stands for this setting: I.N. highest dose (5 mg/animal/day), 14 days, obese mice.

For the compound `CC(=O)NC1C(OC(C)=O)OC(COC(C)=O)[C@@H](F)C1OC(C)=O` (stereo partly shown) [fluorosamine, per-O-acetylated-4-F-N-acetylglucosamine], the “ARC CSPG-ECM area, lower than the controls” value in assay [1] (I.N. 1 mg/animal/day) was 13.54±1.03%; in assay [1] (I.N. 5 mg/animal/day), 13.59±4.09%. Also, the “ARC CSPG-ECM intensity, decrease” value is on record as 15.94±7.17% in assay [1] (I.N. 1 mg/animal/day) and 30.16±1.52% in assay [1] (I.N. 5 mg/animal/day (highest dose)). Also, the ARC neurofibrosis entry in assay [1] (intranasal, diet-induced obese mice, dose not given) is reported as “successfully attenuated ARC neurofibrosis”. The results for the “body weight lost at the end of the experiment” value in assay [2] (setting [4]) and in assay [2] (setting [5]) were 16.32±1.41% and 6.36±0.88%, respectively. Besides, the “mass of epiWAT, BAT and liver” value in assay [2] (setting [4]) is “decreased”. The “post-treatment fat mass decrease compared to pre-treatment mass” value turned out to be 12.59±2.29% in assay [2] (setting [4]) and 23.21±9.27% in assay [2] (I.N. 5 mg/animal/day, 14 days, obese mice). The “day from which weight was robustly decreased” value in assay [2] (I.N. 1 mg/animal/day, obese mice) was determined as 7 days; in assay [2] (I.N. 5 mg/animal/day, obese mice) it was 3 days. In addition, the “day on which 5 mg treatment began to significantly reduce more weight than 1 mg treatment” value in assay [2] (I.N. 5 mg vs 1 mg/animal/day, persisted to day 14) is 9 days. In assay [2] (setting [5]), the “tissue mass (adipose tissues and liver)” value is given as “remarkedly reduced tissue mass”. In addition, the whole-body metabolic improvements result in assay [2] (intranasal, 14 days, diet-induced obese mice, compared with I.C.V. delivery) is listed as “recapitulated the whole-body metabolic improvements observed with intracerebroventricular delivery”. In addition, in assay [3], the “ARC pAKT +ve. cells (insulin receptor signalling)” value is “robust increase”.
